Measured values from patent US8129371B2, “Thienopyrimidine and pyrazolopyrimidine compounds and their use as mTOR kinase and PI3 kinase inhibitors” (Wyeth LLC, priority 2007, dated 2012).
Like-named read-outs stand apart in the source and are kept apart here.

What was measured:
breast line MDA468 = test: In vitro cell culture growth assay (MTS), MDA468; format: cell-based; settings: Homo sapiens, 72 h, MDA468 cells, three days after drug treatment
How it was run: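 Viable cell density is assessed three days after inhibitor addition via MTS conversion, normalised to vehicle-treated cells.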

Human mTOR (FLAG-TOR) = molecular target: T1, Human mTOR (FLAG-TOR) (Homo sapiens, UniProt P42345); test: Human mTOR kinase assay with purified enzyme, DELFIA format; format: biochemical
T1 construct: FLAG
How it was run: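 DELFIA readout: Eu-anti-P(T389)-S6K antibody (40 ng/mL, 1 h) on captured His6-S6K from the stopped reaction. Kinase step used purified FLAG-tagged human mTOR with test compound in HEPES (pH 7.4)/MnCl2/DTT buffer, 2 h at room temperature (linear 1–6 h), terminated by EDTA/EGTA.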

PI3K [1] = molecular target: T2, PI3K (Homo sapiens, UniProt P48736); test: Fluorescence polarization assay for PI3K; format: biochemical; settings: read-out: PI3 Kinase γ IC50
T2 construct: PI3 Kinase γ IC50; other: PI3 Kinase γ; other: PI3 Kinase γ isoform, fluorescence polarization
How it was run: (§1)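 Fluorescence-polarization competition readout: after 30–60 min of PIP2/ATP turnover in 1% DMSO, a stop mix with GST-GRP (70 nM) and red probe (10 nM) was added.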

PI3K [2] = molecular target: T3, PI3K (Homo sapiens, UniProt P42336); test: Fluorescence polarization assay for PI3K; format: biochemical; settings: read-out: PI3 Kinase α IC50
T3 construct: PI3 Kinase α IC50; other: PI3 Kinase α; other: PI3 Kinase α isoform, fluorescence polarization
How it was run: as §1

prostate line LNCap = test: In vitro cell culture growth assay (MTS), LNCap; format: cell-based; settings: Homo sapiens, LNCaP, 72 h, LNCap cells, three days after drug treatment
Description: Human tumor cell lines used include prostate lines LNCap and PC3MM2, breast lines MDA468, MCF7, renal line HTB44 (A498), colon line HCT116, and ovarian line OVCAR3. Cells were plated in 96-well culture plates. One day following plating, the inhibitors were added to cells. Three days after drug treatment, viable cell densities were determined by metabolic conversion (by viable cells) of the dye MTS, a well-established cell proliferation assay. The assays were performed using an assay kit purchased from Promega Corp. (Madison, Wis.) following the protocol supplied with the kit. The MTS assay results were read in a 96-well plate reader by measuring absorbance at 490 nm. The effect of each treatment was calculated as percent of control growth relative to the vehicle-treated cells grown in the same culture plate.

[3] = purified human mTOR enzyme, DELFIA format
[4] = PI3 Kinase γ isoform, fluorescence polarization
[5] = PI3 Kinase α isoform, fluorescence polarization

T2 sequence (P48736 whole entry, canonical isoform): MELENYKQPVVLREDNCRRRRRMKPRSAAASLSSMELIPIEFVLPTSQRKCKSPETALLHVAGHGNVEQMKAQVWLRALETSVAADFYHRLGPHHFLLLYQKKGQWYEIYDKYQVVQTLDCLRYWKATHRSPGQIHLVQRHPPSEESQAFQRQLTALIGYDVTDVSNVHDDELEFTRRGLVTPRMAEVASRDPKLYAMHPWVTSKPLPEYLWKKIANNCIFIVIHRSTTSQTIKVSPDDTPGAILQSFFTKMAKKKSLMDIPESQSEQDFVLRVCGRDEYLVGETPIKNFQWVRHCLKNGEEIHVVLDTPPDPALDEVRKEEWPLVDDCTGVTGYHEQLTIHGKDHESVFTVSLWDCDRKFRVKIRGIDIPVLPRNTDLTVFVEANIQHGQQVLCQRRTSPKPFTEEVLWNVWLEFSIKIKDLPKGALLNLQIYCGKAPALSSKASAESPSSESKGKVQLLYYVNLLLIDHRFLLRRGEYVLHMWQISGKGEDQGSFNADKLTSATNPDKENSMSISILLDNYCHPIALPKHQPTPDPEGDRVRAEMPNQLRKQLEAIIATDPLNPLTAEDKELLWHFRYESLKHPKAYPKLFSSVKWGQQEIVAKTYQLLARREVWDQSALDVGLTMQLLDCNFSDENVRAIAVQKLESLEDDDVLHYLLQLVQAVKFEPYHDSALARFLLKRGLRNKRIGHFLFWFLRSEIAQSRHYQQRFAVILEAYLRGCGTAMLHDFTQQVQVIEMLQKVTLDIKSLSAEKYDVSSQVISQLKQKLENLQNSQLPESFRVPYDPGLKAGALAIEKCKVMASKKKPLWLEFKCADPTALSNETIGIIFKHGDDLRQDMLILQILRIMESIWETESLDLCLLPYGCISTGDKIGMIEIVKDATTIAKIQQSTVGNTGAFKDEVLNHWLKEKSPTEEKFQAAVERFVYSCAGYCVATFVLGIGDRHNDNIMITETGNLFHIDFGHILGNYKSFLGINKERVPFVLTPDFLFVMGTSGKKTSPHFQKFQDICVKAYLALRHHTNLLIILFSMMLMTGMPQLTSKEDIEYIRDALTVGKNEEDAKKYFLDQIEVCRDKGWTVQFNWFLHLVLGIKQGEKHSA
T3 sequence (P42336 whole entry, canonical isoform): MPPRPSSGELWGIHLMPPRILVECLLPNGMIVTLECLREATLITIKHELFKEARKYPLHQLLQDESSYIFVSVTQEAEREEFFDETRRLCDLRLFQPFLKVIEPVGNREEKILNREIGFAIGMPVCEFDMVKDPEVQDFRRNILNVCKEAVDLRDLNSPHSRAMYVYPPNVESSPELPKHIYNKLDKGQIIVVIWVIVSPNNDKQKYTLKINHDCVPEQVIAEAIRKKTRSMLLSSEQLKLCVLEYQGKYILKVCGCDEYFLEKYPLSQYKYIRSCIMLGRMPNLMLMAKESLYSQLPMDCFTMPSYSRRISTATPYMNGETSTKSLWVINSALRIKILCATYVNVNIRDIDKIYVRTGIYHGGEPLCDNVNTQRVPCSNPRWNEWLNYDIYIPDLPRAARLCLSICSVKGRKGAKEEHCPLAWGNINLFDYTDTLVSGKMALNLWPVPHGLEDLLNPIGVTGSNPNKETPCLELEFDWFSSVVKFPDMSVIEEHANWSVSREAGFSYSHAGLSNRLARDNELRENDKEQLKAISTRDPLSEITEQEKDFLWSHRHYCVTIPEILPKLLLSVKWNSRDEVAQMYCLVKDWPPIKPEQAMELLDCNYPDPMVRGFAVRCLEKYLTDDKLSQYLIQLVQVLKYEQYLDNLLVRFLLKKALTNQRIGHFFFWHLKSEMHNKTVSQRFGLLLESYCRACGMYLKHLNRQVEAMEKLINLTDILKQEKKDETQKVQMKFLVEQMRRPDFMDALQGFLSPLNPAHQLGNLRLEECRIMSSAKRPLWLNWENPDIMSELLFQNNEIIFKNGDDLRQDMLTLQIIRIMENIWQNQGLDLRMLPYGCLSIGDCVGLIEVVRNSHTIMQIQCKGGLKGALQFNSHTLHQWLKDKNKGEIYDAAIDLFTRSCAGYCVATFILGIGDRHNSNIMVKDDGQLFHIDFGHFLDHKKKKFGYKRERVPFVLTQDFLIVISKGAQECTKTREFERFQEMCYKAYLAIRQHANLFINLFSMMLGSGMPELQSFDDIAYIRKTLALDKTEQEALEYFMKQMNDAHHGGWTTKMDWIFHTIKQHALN

IC50 (Human mTOR (FLAG-TOR)) | IC50 (PI3K [1]; PI3 Kinase γ) | IC50 (PI3K [2]; PI3 Kinase α) | IC50 (prostate line LNCap) | IC50 (Human mTOR (FLAG-TOR); [3]) | IC50 (PI3K [1]; [4]) | IC50 (PI3K [2]; [5]) | SMILES | IC50 (breast line MDA468)
69 nM | > 10000 nM | 7920 nM | 950 nM |  |  |  | COC(=O)N1CCC(n2ncc3c(N4CC5CCC(C4)O5)nc(-c4ccc(N)cc4)nc32)CC1 [Example 120, methyl 4-[6-(4-aminophenyl)-4-(8-oxa-3-azabicyclo[3.2.1]oct-3-yl)-1H-pyrazolo[3,4-d]pyrimidin-1-yl]piperidine-1-carboxylate] | 6900 nM
2.2 nM | 7330 nM | 607 nM | 10000 nM |  |  |  | O=C(NCCO)Nc1ccc(-c2nc(N3CC4CCC(C3)O4)c3cnn(CCO)c3n2)cc1 [Example 196, 1-(2-hydroxyethyl)-3-{4-[1-(2-hydroxyethyl)-4-(8-oxa-3-azabicyclo[3.2.1]oct-3-yl)-1H-pyrazolo[3,4-d]pyrimidin-6-yl]phenyl}urea] | 13000 nM
 |  |  | 380 nM | 8.05 nM | 5320 nM | 606 nM | CNC(=O)Nc1ccc(-c2nc(N3CC4CCC(C3)O4)c3cnn(C4CCC(N5CCCC5)CC4)c3n2)cc1 (centres unmarked) [Example 331, 1-methyl-3-{4-[4-(8-oxa-3-azabicyclo[3.2.1]oct-3-yl)-1-(4-pyrrolidin-1-ylcyclohexyl)-1H-pyrazolo[3,4-d]pyrimidin-6-yl]phenyl}urea] | 1200 nM
0.565 nM | > 10000 nM | 3960 nM | 42 nM |  |  |  | O=C(Nc1ccc(-c2nc(N3CC4CCC(C3)O4)c3cnn(C4CCC(O)CC4)c3n2)cc1)OCCO (centres unmarked) [Example 212, 2-hydroxyethyl {4-[1-(4-hydroxycyclohexyl)-4-(8-oxa-3-azabicyclo[3.2.1]oct-3-yl)-1H-pyrazolo[3,4-d]pyrimidin-6-yl]phenyl}carbamate] | 190 nM
 |  |  | 4 nM | 0.48 nM | 8000 nM | 1460 nM | O=C(Nc1ccc(-c2nc(N3CC4CCC(C3)O4)c3cnn(CC(F)(F)F)c3n2)cc1)NC1CC1 [Example 395, 1-cyclopropyl-3-{4-[4-(8-oxa-3-azabicyclo[3.2.1]oct-3-yl)-1-(2,2,2-trifluoroethyl)-1H-pyrazolo[3,4-d]pyrimidin-6-yl]phenyl}urea] | 60 nM
 |  |  | 130 nM | 1.95 nM | 6580 nM | 565 nM | C=Cc1nn(CC)c2nc(-c3ccc(NC(=O)NC)cc3)nc(N3CC4CCC(C3)O4)c12 [Example 350, 1-{4-[1-ethyl-4-(8-oxa-3-azabicyclo[3.2.1]oct-3-yl)-3-vinyl-1H-pyrazolo[3,4-d]pyrimidin-6-yl]phenyl}-3-methylurea] | 480 nM
0.295 nM | 7760 nM | 2150 nM | 1 nM |  |  |  | CCn1ncc2c(N3CC4CCC(C3)O4)nc(-c3ccc(NC(=O)Nc4ccc(N5CCOCC5)nc4)cc3)nc21 [Example 184, 1-{4-[1-ethyl-4-(8-oxa-3-azabicyclo[3.2.1]oct-3-yl)-1H-pyrazolo[3,4-d]pyrimidin-6-yl]phenyl}-3-(6-morpholin-4-ylpyridin-3-yl)urea] | 8 nM
0.885 nM | 11000 nM | 849 nM | 5 nM |  |  |  | CCn1ncc2c(N3CC4CCC(C3)O4)nc(-c3ccc(NC(=O)Nc4ccc(C)cc4)cc3)nc21 [Example 189, 1-{4-[1-ethyl-4-(8-oxa-3-azabicyclo[3.2.1]oct-3-yl)-1H-pyrazolo[3,4-d]pyrimidin-6-yl]phenyl}-3-(4-methylphenyl)urea] | 20 nM
1.75 nM | 1170 nM | 82 nM | 1 nM |  |  |  | CN(C)CCn1ncc2c(N3CC4CCC(C3)O4)nc(-c3ccc(NC(=O)Nc4ccc(CCO)cc4)cc3)nc21 [Example 155, 1-(4-{1-[2-(dimethylamino)ethyl]-4-(8-oxa-3-azabicyclo[3.2.1]oct-3-yl)-1H-pyrazolo[3,4-d]pyrimidin-6-yl}phenyl)-3-[4-(2-hydroxyethyl)phenyl]urea] | 110 nM
54 nM | > 10000 nM | > 10000 nM | 1050 nM |  |  |  | Nc1ccc(-c2nc(N3CC4CCC(C3)O4)c3cnn(C4CCC5(CC4)OCCO5)c3n2)cc1 [Example 81, 4-[1-(1,4-dioxaspiro[4.5]dec-8-yl)-4-(8-oxa-3-azabicyclo[3.2.1]oct-3-yl)-1H-pyrazolo[3,4-d]pyrimidin-6-yl]aniline] | 5800 nM
 |  |  | 110 nM | 0.395 nM | 5340 nM | 2980 nM | CN1CCN(C2CCC(n3ncc4c(N5CC6CCC(C5)O6)nc(-c5ccc(NC(=O)NC6CC6)cc5)nc43)CC2)CC1 (centres unmarked) [Example 372, 1-cyclopropyl-3-(4-{1-[4-(4-methylpiperazin-1-yl)cyclohexyl]-4-(8-oxa-3-azabicyclo[3.2.1]oct-3-yl)-1H-pyrazolo[3,4-d]pyrimidin-6-yl}phenyl)urea] | 420 nM
 |  |  | 19000 nM | 545 nM | > 10000 nM | 5530 nM | CN1CCN(Cc2cc3nc(-c4ccc(NC(=O)NN(C)C)cc4)nc(N4CC5CCC(C4)O5)c3s2)CC1 [Example 425, 2,2-dimethyl-N-(4-{6-[(4-methylpiperazin-1-yl)methyl]-4-(8-oxa-3-azabicyclo[3.2.1]oct-3-yl)thieno[3,2-d]pyrimidin-2-yl}phenyl)hydrazinecarboxamide] | 23000 nM
 |  |  | 700 nM | 15.5 nM | > 10000 nM | 4790 nM | CCn1ncc2c(N3CC4CCC(C3)O4)nc(-c3ccc(NC(=O)OC)cc3)nc21 [Example 375, methyl {4-[1-ethyl-4-(8-oxa-3-azabicyclo[3.2.1]oct-3-yl)-1H-pyrazolo[3,4-d]pyrimidin-6-yl]phenyl}carbamate] | 1700 nM
0.37 nM | > 10000 nM | 1350 nM | 7 nM |  |  |  | Cn1ncc2c(N3CC4CCC(C3)O4)nc(-c3ccc(NC(=O)Nc4ccc(N5CCOCC5)nc4)cc3)nc21 [Example 237, 1-{4-[1-methyl-4-(8-oxa-3-azabicyclo[3.2.1]oct-3-yl)-1H-pyrazolo[3,4-d]pyrimidin-6-yl]phenyl}-3-(6-morpholin-4-ylpyridin-3-yl)urea] | 52 nM
 |  |  | < 1 nM | 0.55 nM | 3580 nM | 275 nM | O=C(Nc1ccc(CCO)cc1)Nc1ccc(-c2nc(N3C[C@@H]4C[C@H]3CO4)c3cnn(CC(F)(F)F)c3n2)cc1 [Example 297, 1-[4-(2-hydroxyethyl)phenyl]-3-(4-{4-[(1S,4S)-2-oxa-5-azabicyclo[2.2.1]hept-5-yl]-1-(2,2,2-trifluoroethyl)-1H-pyrazolo[3,4-d]pyrimidin-6-yl}phenyl)urea] | 4 nM
1.6 nM | 7910 nM | 799 nM | 46 nM |  |  |  | CCNC(=O)Nc1ccc(-c2nc(N3CC4CCC(C3)O4)c3cnn(C)c3n2)cc1 [Example 51, 1-ethyl-3-{4-[1-methyl-4-(8-oxa-3-azabicyclo[3.2.1]oct-3-yl)-1H-pyrazolo[3,4-d]pyrimidin-6-yl]phenyl}urea] | 390 nM
0.56 nM | > 10000 nM | 1980 nM | 1010 nM |  |  |  | CC(C)C(=O)N1CCC(n2ncc3c(N4CC5CCC(C4)O5)nc(-c4ccc(NC(=O)NCCO)cc4)nc32)CC1 [Example 84, 1-(2-hydroxyethyl)-3-{4-[1-(1-isobutyrylpiperidin-4-yl)-4-(8-oxa-3-azabicyclo[3.2.1]oct-3-yl)-1H-pyrazolo[3,4-d]pyrimidin-6-yl]phenyl}urea] | 1200 nM

SMILES | IC50 (Human mTOR (FLAG-TOR)) | IC50 (PI3K [1]; PI3 Kinase γ) | IC50 (PI3K [2]; PI3 Kinase α) | IC50 (prostate line LNCap) | IC50 (Human mTOR (FLAG-TOR); [3]) | IC50 (PI3K [1]; [4]) | IC50 (PI3K [2]; [5]) | IC50 (breast line MDA468)
COC(=O)N1CCC(n2ncc3c(N4C5CCC4COC5)nc(-c4ccc(NC(=O)Nc5ccccc5)cc4)nc32)CC1 [Example 360, methyl 4-[4-(3-oxa-8-azabicyclo[3.2.1]oct-8-yl)-6-{4-[(phenylcarbamoyl)amino]phenyl}-1H-pyrazolo[3,4-d]pyrimidin-1-yl]piperidine-1-carboxylate] |  |  |  | 10 nM | 0.425 nM | 2150 nM | 1460 nM | 40 nM
CNC(=O)Nc1ccc(-c2nc(N3C4CCC3COC4)c3cnn(C4CCN(C(=O)OC)CC4)c3n2)cc1 [Example 356, methyl 4-[6-{4-[(methylcarbamoyl)amino]phenyl}-4-(3-oxa-8-azabicyclo[3.2.1]oct-8-yl)-1H-pyrazolo[3,4-d]pyrimidin-1-yl]piperidine-1-carboxylate] |  |  |  | 30 nM | 0.22 nM | 6740 nM | 4270 nM | 50 nM
